Reference: paper PMC10510324, “A Biomimetic C-Terminal Extension Strategy for Photocaging Amidated Neuropeptides” (Journal of the American Chemical Society, 2023)
Starred links: 1 amine or outer side, 2 acyl side, 3 side chain; linkers in the order of their positions; H or OH if unused. Non-standard residues stand in square brackets, D forms with d. Residues, ends and D or L forms follow the SMILES beside them. No end group written: not given here. X1 = COc1cc(C(CC(=O)[*:2])N[*:1])c([N+](=O)[O-])cc1OC; DMNBA = dimethoxynitrobenzyl beta-alanine, racemic

Experiments:
GRPR = biological target: T1, GRPR (Mus musculus, UniProt P21729); test: Whole-cell recording of membrane currents, VIP interneurons of motor cortex, acute brain slices; assay type: cell-based
T1 construct: from tissue; host or cells: acute mouse brain slices, VIP interneurons of primary motor cortex (VipCre; Ai14 mice)
T1 sequence (P21729 whole entry): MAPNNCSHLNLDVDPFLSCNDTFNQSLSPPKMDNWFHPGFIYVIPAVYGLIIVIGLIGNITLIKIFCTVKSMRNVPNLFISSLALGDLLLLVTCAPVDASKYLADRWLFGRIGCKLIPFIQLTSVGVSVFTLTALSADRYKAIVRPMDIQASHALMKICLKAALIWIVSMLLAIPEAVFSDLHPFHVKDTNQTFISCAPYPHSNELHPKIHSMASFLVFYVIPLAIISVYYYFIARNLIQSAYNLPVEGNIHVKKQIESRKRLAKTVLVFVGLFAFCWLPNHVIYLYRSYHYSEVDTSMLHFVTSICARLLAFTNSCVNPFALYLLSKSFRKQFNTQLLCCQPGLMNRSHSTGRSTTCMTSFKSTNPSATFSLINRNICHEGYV
Description: (§1) Photoactivatable neuropeptides are powerful tools that can drive studies into the mechanisms of endogenous receptor signaling in acute brain slices.[3],[8],[40] To determine if NPP-caged peptides are compatible with such experiments, we established electrophysiological assays for measuring the activation of GRPR, OTR, NK1R, and CCK2R in acute brain slices taken from transgenic mice. These assays involved whole cell recordings of membrane currents from genetically defined neurons located in different brain regions where endogenous receptor activation produces inward, excitatory currents that facilitate action potential firing. Neuropeptide receptor-expressing cells were identified for fluorescence-guided, targeted electrophysiological recordings using transgenic mice that contain transgenes encoding Cre-recombinase under a promotor that is specific to the cell of interest, as well as a Cre-dependent tdTomato fluorescent protein via the Ai14 (Rosa26-lsl-tdTomato) reporter strain. […]
(§2) (A) Average inward currents over time after bath application of GRP(14-27)-NPP (3 μM, n = 5 cells from 4 mice) or GRP(14-27) (300 nM, n = 5 from 4 mice), recorded from fluorescently labeled VIP interneurons in layer 1 of the motor cortex. Data are expressed as the mean ± SEM. […] Data are expressed as the mean ± SEM. […] Data are expressed as the mean ± SEM. […] Data are expressed as the mean ± SEM. […]

[1] = biological target: T2, gastrin-releasing peptide receptor (GRPR) (Mus musculus, UniProt P21729); test: GloSensor cAMP assay of GPCR activation, GRPR; assay type: cell-based; conditions: for EC50: GloSensor cAMP, n = 10 wells per data point
T2 construct: host or cells: HEK293T
T2 sequence (P21729 whole entry): as above
Description: To determine the effectiveness of the C-TEx caging strategy at attenuating peptide activity, we conducted a live-cell functional assay of GPCR activation in HEK293T cells transfected to express the primary receptors for each neuropeptide. The GloSensor assay reports changes in cyclic adenosine monophosphate (cAMP) signaling as a function of GPCR activation. […] To adapt this cAMP assay to report the activation of Gq-coupled GPCRs, we coexpressed a chimeric Gαs/Gαq protein (sq5) that allows Gq-coupled GPCRs to strongly engage the Gs pathway to elevate cAMP via activation of adenylyl cyclase.[39]
Figure 3 In vitro characterization of NPP-caged neuropeptides using a functional assay of G protein signaling. (A) Dose–response curves at the gastrin-releasing peptide receptor (GRPR) using a GloSensor assay of cAMP signaling in HEK293T cells (n = 10 wells per data point). Data were normalized to the maximal response to GRP(14-27) (300 nM) and are expressed as the mean ± SEM.
Reagent type (species) Designation Source or Identifiers
GRPR plasmid mGRPR Genscript Clone ID OMu14220D
OTR plasmid hOXR cdna.org Cat # OXTR000000
CCK1R hCCK1R cdna.org Cat # CCKAR00000
CCK2R plasmid hCCK2R cdna.org Cat # CCKBR00000
NK1R plasmid hNK1R cdna.org Cat # TACR100000
HEK293T cells ATCC.org Cat # CRL-3216
GloSensor plasmid pGloSensor - Promega Cat # E2301
GloSensor reagent cAMP Reagent Promega Product # E1291
VIP-IRES-CRE, C57Bl/6J The Jackson background (M. musculus, VipCre Laboratory Cat # 010908
Ai14, C57Bl/6J Rosa26-lsl- The Jackson background (M. musculus, tdTomato (Ai14) Laboratory Cat # 007914 […]
C57Bl/6J background (M. ChatCre The Jackson Cat # 006410 musculus, male and Laboratory
Pvalb-IRES-Cre, C57Bl/6J The Jackson background (M. musculus, PvalbCre Cat # 017320 male and female) Laboratory […]
parent peptide. […] The solutions were illuminated in 15 sec periods, after which samples were removed and analyzed by LC-MS using a linear gradient (water/MeCN 5%/95% → MeCN 100%, 0-8 min with 0.1% formic acid) and a C-18 column (4.6 × 50 mm, 1.8 μm) (Agilent). Each compound was assessed in triplicate. […]

OTR = biological target: T3, OTR (Mus musculus, UniProt P97926); test: Whole-cell recording of membrane currents, PV interneurons of hippocampal CA1 and CA2, acute brain slices; assay type: cell-based
T3 construct: from tissue; host or cells: acute mouse brain slices, PV interneurons of hippocampal CA1 and CA2 (PvalbCre; Ai14 mice)
T3 sequence (P97926 1-388): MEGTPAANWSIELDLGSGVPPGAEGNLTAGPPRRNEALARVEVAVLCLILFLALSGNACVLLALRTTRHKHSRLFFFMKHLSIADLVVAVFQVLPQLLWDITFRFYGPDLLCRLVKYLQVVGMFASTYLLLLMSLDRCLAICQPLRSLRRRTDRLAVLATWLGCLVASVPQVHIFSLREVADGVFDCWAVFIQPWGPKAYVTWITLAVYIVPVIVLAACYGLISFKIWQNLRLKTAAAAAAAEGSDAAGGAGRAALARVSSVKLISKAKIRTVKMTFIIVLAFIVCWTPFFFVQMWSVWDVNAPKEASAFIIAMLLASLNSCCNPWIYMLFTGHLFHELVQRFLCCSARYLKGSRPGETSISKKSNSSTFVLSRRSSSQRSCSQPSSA
Description: as §1, §2

NK1R = biological target: T4, NK1R (Mus musculus, UniProt P30548); test: Whole-cell recording of membrane currents, striatal cholinergic interneurons, acute brain slices; assay type: cell-based
T4 construct: from tissue; host or cells: acute mouse brain slices, cholinergic interneurons of dorsal striatum (ChatCre; Ai14 mice)
T4 sequence (P30548 whole entry): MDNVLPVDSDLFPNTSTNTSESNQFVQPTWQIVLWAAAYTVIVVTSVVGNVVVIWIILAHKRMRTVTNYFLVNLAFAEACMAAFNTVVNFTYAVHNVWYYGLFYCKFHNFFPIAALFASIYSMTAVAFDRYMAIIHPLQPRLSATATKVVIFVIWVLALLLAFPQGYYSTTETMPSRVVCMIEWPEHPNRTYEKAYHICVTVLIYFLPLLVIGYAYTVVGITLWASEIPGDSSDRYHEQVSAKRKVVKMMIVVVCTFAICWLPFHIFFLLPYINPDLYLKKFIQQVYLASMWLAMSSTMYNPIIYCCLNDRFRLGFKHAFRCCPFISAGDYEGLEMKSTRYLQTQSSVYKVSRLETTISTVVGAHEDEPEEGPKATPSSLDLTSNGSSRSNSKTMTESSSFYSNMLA
Description: Photoactivatable neuropeptides are powerful tools that can drive studies into the mechanisms of endogenous receptor signaling in acute brain slices.[3],[8],[40] To determine if NPP-caged peptides are compatible with such experiments, we established electrophysiological assays for measuring the activation of GRPR, OTR, NK1R, and CCK2R in acute brain slices taken from transgenic mice. These assays involved whole cell recordings of membrane currents from genetically defined neurons located in different brain regions where endogenous receptor activation produces inward, excitatory currents that facilitate action potential firing. Neuropeptide receptor-expressing cells were identified for fluorescence-guided, targeted electrophysiological recordings using transgenic mice that contain transgenes encoding Cre-recombinase under a promotor that is specific to the cell of interest, as well as a Cre-dependent tdTomato fluorescent protein via the Ai14 (Rosa26-lsl-tdTomato) reporter strain.
Our experimental framework for evaluating NPP-caged peptides in brain slices is as follows. To assess residual activity, we compared the membrane currents evoked by bath application of the parent peptide and NPP-caged peptide. To evaluate photoactivation, we compared the peak current evoked by a single, high-intensity (20–200 ms, 50–80 mW) light flash from either a 355 nm laser or 365 nm LED, to the current evoked by bath application of the parent peptide, the NPP-caged peptide without light, and NPP-peptide photoactivation in the presence of a receptor antagonist.
(A) Average inward currents over time after bath application of GRP(14-27)-NPP (3 μM, n = 5 cells from 4 mice) or GRP(14-27) (300 nM, n = 5 from 4 mice), recorded from fluorescently labeled VIP interneurons in layer 1 of the motor cortex. Data are expressed as the mean ± SEM. (B) Average inward currents evoked by photoactivation of GRP(14-27)-NPP (3 μM) with an […] light flash in the absence (green, n = 10 cells from 4 mice) and presence of the GRPR antagonist BW1023U90 (1 μM) (black, n = 6 cells from 2 mice). […] Data are expressed as the mean ± SEM. […] Data are expressed as the mean ± SEM. […] Data are expressed as the mean ± SEM. […] Data are expressed as the mean ± SEM.
Brain slice preparation. All procedures were performed in accordance with protocols approved by the University of California San Diego Institutional Animal Care and Use Committee (IACUC) following guidelines described in the US National Institutes of Health Guide for Care and Use of Laboratory Animals (UCSD IACUC protocol S16171). Experiments were conducted using mice of both sexes and the data were combined. From Vip Cre; Rosa26-lsl-tdTomato (Ai14), mouse age ranged from P15-30. From Pvalb Cre; Rosa26-lsl-tdTomato (Ai14), mouse age ranged from P20-35. From Chat Cre; Rosa26-lsl-tdTomato (Ai14), mouse age ranged from P40-100. Mice were anesthetized with isoﬂurane and decapitated, and the brain was removed, blocked, and mounted in a VT1000S vibratome (Leica Instruments). For recordings from cortex and striatum, coronal slices (300 μm) were prepared, and for hippocampus, horizontal slices

[2] = biological target: gastrin-releasing peptide receptor (UniProt P30550)
Chain of gastrin-releasing peptide receptor (P30550 whole entry): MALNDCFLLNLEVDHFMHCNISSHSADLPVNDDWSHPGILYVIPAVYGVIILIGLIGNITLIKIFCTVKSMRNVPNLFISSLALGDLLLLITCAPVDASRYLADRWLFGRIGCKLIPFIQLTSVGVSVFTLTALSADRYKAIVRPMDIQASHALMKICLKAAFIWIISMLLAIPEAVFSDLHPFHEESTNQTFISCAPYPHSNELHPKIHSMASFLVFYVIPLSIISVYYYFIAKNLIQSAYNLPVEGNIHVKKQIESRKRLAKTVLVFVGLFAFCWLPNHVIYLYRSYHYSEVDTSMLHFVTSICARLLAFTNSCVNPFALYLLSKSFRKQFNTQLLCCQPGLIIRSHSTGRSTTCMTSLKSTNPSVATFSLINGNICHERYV

Molecule: 3-Phenylpropanoyl-His-Trp-Ala-Val-D-Ala-His-D-Pro-CH2NH-Phe-NH2 [BW1023U90]
- block of light-evoked GRP(14-27)-NPP current (GRPR; antagonist 1 μM): completely blocked

Molecule: CSCC[C@H](NC(=O)[C@H](CC(C)C)NC(=O)[C@H](Cc1c[nH]cn1)NC(=O)CNC(=O)[C@@H](NC(=O)[C@H](C)NC(=O)[C@H](Cc1c[nH]c2ccccc12)NC(=O)[C@H](Cc1c[nH]cn1)NC(=O)[C@H](CC(N)=O)NC(=O)CNC(=O)[C@H](CCCNC(=N)N)NC(=O)[C@@H]1CCCN1C(=O)[C@H](Cc1ccc(O)cc1)NC(=O)[C@@H](N)CCSC)C(C)C)C(N)=O [GRP(14-27), Gastrin-releasing peptide (14-27)]
- EC50 ([1]; HEK293T cells coexpressing chimeric Gαs/Gαq (sq5), normalized to GRP(14-27) 300 nM): 0.0006 µM
- peak current amplitude, bath application (GRPR; 300 nM, n = 5 cells from 4 mice, held at −55 mV, mean ± SEM): −62.8 ± 12.8

Molecule: COc1cc(C(CC(=O)N[C@@H](CCCNC(=N)N)C(=O)N[C@@H](CCCCN)C(=O)N2CCC[C@H]2C(=O)N[C@@H](CCC(=O)O)C(=O)N[C@@H](CCCCN)C(=O)O)NC(=O)[C@H](CCSC)NC(=O)[C@H](CC(C)C)NC(=O)[C@H](Cc2c[nH]cn2)NC(=O)CNC(=O)[C@@H](NC(=O)[C@H](C)NC(=O)[C@H](Cc2c[nH]c3ccccc23)NC(=O)[C@H](Cc2c[nH]cn2)NC(=O)[C@H](CC(N)=O)NC(=O)CNC(=O)[C@H](CCCNC(=N)N)NC(=O)[C@@H]2CCCN2C(=O)[C@H](Cc2ccc(O)cc2)NC(=O)[C@@H](N)CCSC)C(C)C)c([N+](=O)[O-])cc1OC (stereo partly drawn) [GRP(14-27)-NPP] (H-MYPRGNHWAVGHLM[X1]RKPEK-OH)
- EC50 ([1]; HEK293T cells coexpressing sq5, no light): 6.1 µM
- reduction of EC50 (potency) at the GRPR by NPP-caging ([1]; caged versus parent peptide): ~10,000 fold

Molecule: CC[C@H](C)[C@@H]1NC(=O)[C@H](Cc2ccc(O)cc2)NC(=O)[C@@H](N)CSSC[C@@H](C(=O)N2CCC[C@H]2C(=O)N[C@@H](CC(C)C)C(=O)NCC(N)=O)NC(=O)[C@H](CC(N)=O)NC(=O)[C@H](CCC(N)=O)NC1=O [OT, Oxytocin]
- peak current amplitude, bath application (OTR; 300 nM, n = 7 from 4 mice, held at -70 mV, mean ± SEM): −35.8 ± 5.7

Molecule: COc1ccccc1CC(=N)N1C[C@@H]2C(=O)CCC(c3ccccc3)(c3ccccc3)[C@@H]2C1 [RP67580, (3aR,7aR)-Octahydro-2-[1-imino-2-(2-methoxyphenyl)ethyl]-7,7-diphenyl-4H-isoindol]
- block of light-evoked SP-NPP current (NK1R; antagonist 10 μM): largely blocked

Molecule: (d(CH2)5^1,Tyr(Me)^2,Thr^4,Orn^8,des-Gly-NH2^9)-Vasotocin [OTA]
- block of light-evoked OT-NPP current (OTR; antagonist 1 μM): blocked

Molecule: SP-NPP: NPP-caged substance P
- peak current amplitude, bath application without light (NK1R; 1 μM, 1:1 mixture of diastereomers, n = 6 cells from 5 mice, mean ± SEM): −5.2 ± 13.6
- peak current amplitude, photoactivation (+ UV) (NK1R; 1 μM, 1 × 20 ms, 84 mW, 365 nm LED, n = 5 cells from 5 mice, mean ± SEM): −265.5 ± 19.7
- activity on bath application without light (NK1R; 3 μM as printed in the text, 1:1 mixture of diastereomers): inactive
- τon of light-evoked current (NK1R; 1 × 20 ms, 84 mW, 365 nm LED): 1.1 s
- τoff slow of light-evoked current (NK1R; 1 × 20 ms, 84 mW, 365 nm LED, biphasic decay): 19.5 s

B1: GRP(14-27)-NPP (peptide)
peptide: MYPRGNHWAVGHLM[DMNBA]RKPEK
modifications: also: DMNBA racemic, diastereomers not resolved
- EC50 of receptor activation, GloSensor cAMP assay in HEK293T cells co-expressing the chimeric Gαs/Gαq protein sq5 [2]: 6.1 µM

B2: gastrin-releasing peptide (14-27) (peptide)
peptide: MYPRGNHWAVGHLM-NH2
- EC50 of receptor activation, GloSensor cAMP assay in HEK293T cells co-expressing the chimeric Gαs/Gαq protein sq5 [2]: 0.0006 µM
